In ChEMBL document CHEMBL1208688, “Synthesis and biological evaluation of novel benzodioxinocarbazoles (BDCZs) as potential anticancer agents” (Bioorg Med Chem Lett, 2010):
Active and inactive are the calls of the source. The rule behind the calls is not given here.

What was measured:
[1] = molecular target: DNA topoisomerase 2-alpha (Homo sapiens) (UniProt P11388); assay: Inhibition of topoisomerase 2
[2] = molecular target: T1, DNA topoisomerase 1 (Homo sapiens) (UniProt P11387); assay: Inhibition of topoisomerase 1
T1 sequence (whole entry): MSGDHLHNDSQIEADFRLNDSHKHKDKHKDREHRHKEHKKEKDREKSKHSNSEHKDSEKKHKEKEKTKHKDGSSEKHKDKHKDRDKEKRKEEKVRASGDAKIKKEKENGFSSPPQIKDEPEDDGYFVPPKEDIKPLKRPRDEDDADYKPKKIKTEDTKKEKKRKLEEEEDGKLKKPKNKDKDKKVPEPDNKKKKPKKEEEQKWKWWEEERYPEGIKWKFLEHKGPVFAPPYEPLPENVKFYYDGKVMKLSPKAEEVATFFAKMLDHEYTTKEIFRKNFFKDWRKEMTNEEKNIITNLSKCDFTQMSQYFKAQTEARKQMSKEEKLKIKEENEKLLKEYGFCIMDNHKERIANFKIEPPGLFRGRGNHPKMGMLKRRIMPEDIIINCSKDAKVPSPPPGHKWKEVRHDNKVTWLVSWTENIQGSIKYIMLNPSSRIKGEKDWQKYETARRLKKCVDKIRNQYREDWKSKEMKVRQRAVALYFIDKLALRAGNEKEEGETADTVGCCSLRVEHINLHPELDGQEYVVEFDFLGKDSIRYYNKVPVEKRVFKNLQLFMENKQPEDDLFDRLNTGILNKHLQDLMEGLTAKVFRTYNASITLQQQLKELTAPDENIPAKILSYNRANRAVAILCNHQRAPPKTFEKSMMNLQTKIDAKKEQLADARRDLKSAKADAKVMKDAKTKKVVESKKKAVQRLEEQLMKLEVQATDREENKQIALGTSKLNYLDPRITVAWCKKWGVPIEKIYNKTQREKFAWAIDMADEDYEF

DNA topoisomerase 2-alpha (Homo sapiens), sequence (P11388 whole entry): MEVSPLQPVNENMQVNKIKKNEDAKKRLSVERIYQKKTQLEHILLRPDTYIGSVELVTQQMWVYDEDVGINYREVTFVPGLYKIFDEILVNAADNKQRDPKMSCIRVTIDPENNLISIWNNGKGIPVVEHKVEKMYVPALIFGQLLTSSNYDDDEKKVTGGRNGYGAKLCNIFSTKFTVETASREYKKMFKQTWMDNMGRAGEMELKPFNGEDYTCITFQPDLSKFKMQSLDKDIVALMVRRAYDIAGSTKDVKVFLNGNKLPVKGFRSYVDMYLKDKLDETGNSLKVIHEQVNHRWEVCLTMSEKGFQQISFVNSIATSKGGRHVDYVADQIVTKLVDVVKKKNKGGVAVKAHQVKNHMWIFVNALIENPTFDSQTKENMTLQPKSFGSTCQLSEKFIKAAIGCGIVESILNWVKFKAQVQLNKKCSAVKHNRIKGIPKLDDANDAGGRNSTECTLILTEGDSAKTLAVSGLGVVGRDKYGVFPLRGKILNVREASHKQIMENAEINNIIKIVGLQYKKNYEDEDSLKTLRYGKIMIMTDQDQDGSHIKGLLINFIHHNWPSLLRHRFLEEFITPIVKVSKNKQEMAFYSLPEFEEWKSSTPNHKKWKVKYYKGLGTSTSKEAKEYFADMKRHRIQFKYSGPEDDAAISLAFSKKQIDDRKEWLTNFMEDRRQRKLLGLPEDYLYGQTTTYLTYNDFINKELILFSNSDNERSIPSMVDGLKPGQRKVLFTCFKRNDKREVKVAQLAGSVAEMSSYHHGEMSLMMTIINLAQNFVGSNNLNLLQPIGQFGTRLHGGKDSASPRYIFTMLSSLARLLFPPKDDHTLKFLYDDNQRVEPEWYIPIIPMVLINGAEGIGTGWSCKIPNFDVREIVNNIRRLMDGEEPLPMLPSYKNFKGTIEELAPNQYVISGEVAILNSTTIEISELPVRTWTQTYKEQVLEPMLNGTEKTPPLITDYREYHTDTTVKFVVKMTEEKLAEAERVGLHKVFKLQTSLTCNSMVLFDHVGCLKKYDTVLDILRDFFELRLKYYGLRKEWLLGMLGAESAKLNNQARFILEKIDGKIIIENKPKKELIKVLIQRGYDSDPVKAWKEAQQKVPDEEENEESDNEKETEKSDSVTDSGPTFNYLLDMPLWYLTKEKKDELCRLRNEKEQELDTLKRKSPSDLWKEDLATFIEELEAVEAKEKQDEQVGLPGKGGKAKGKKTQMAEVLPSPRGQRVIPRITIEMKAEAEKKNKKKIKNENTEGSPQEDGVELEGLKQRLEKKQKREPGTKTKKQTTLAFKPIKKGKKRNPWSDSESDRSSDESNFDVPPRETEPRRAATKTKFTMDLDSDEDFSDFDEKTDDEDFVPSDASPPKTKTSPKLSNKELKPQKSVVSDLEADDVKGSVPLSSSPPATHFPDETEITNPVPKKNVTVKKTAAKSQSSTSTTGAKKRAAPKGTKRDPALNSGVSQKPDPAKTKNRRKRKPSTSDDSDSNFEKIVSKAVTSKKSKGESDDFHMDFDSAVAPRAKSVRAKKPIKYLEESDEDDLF

Compound: CN(C)CCn1c(=O)c2c3oc4ccccc4oc3c3[nH]c4ccc(O)cc4c3c2c1=O
- inhibition [1]: inactive
- inhibition [2]: inactive
